Laboratory results published in patent publication US9249152B2, “Cyano containing azabenzofuran compounds for the treatment of hepatitis C” (BRISTOL-MYERS SQUIBB COMPANY, priority 2014, dated 2016).
Like-named read-outs stand apart in the source and are kept apart here.

Assays:
[1] = system: HCV replicon 1a; assay: HCV replicon luciferase assay, genotype 1a; assay type: cell-based; details: Hepatitis C virus
[2] = system: HCV; details: cited from earlier work
[3] = system: genotype 1b (Con-1) HCV replicon; assay: HCV replicon luciferase assay, genotype 1b (Con-1); assay type: cell-based; details: genotype 1b HCV replicon, Huh-7 cells, Renilla luciferase, 3 days
Protocol: The cell lines used to evaluate compounds consist of a human hepatocyte derived cell line (Huh-7) that constitutively expresses a genotype 1b (Con-1) HCV replicon or a genotype 1b (Con-1) HCV replicon with an asparagine replacing the cysteine at amino acid 316, or a genotype 2a (JFH-1) replicon, containing a Renilla luciferase reporter gene. These cells were maintained in Dulbecco's modified Eagle medium (DMEM) containing 10% FBS, 100 U/mL penicillin/streptomycin and 1.0 mg/mL G418.
To evaluate compound efficacy, titrated compounds were transferred to sterile 384-well tissue culture treated plates, and the plates were seeded with HCV replicon cells (50 μL at a density of 2.4×10^3 cells/well) in DMEM containing 4% FBS (final DMSO concentration at 0.5%). After 3 days incubation at 37° C., cells were analyzed for Renilla Luciferase activity using the EnduRen substrate (Promega cat #E6485) according to the manufacturer's directions. Briefly, the EnduRen substrate was diluted in DMEM and then added to the plates to a final concentration of 7.5 μM. The plates were incubated for at least 1 h at 37° C. then read on a Viewlux Imager (PerkinElmer) using a luminescence program. The 50% effective concentration (EC50) was calculated using the four-parameter logistic formula noted above.

[4] = Hepatitis C virus, Huh-7, 72 h, read-out: EC50 1b (class)
[5] = Hepatitis C virus, Huh-7, 72 h, read-out: EC50 (uM) 1b

Compound	EC50 [3, 4] [µM]	further results
CNC(=O)c1c(-c2ccc(F)cc2)oc2nc(OCC(F)(F)F)c(-c3cccc(C(=O)NC(C)(C)C#N)c3)cc12 [Compound K9001, 5-(3-((2-cyanopropan-2-yl)carbamoyl)phenyl)-2-(4-fluorophenyl)-N-methyl-6-(2,2,2-trifluoroethoxy)furo[2,3-b]pyridine-3-carboxamide]	–	EC50 ([1]; read-out: EC50 for 1a instead): 17.7 nM; EC50 ([1]; read-out: EC50 for 1a instead (class)): < 100 nM
alpha-interferon and ribavirin	–	sustained efficacy, share of patients ([2]; patients): 40%
CNC(=O)c1c(-c2ccc(F)cc2)oc2nc(CCC(F)(F)F)c(-c3ccc(OC)c(C(=O)NC4(C#N)CCC4)c3)cc12 [Compound 12002]	< 0.1	–
CNC(=O)c1c(-c2ccc(F)cc2)oc2nc(NCC(F)(F)F)c(-c3ccc(F)c(C(=O)NC4(C#N)CC4)c3)cc12 [Compound K2002]	< 0.1	EC50 [3, 5]: 0.0034 µM
CNC(=O)c1c(-c2ccc(F)cc2)oc2nc(CCC(F)(F)F)c(-c3ccc(F)c(C(=O)NC(C)(C#N)C(C)C)c3)cc12 (stereo not drawn) [Compound 13002]	< 0.1	EC50 [3, 5]: 0.0024 µM
CNC(=O)c1c(-c2ccc(F)cc2)oc2nc(NCCO)c(-c3cccc(C(=O)NC(C)(C)C#N)c3)cc12 [Compound 40001]	< 0.1	–
CNC(=O)c1c(-c2ccc(F)cc2)oc2cc(N(CCO)S(C)(=O)=O)c(C3CC3)cc12 [HCV-796]	–	hepatic toxicity ([2]; extended dosing of the combination regimens): hepatic toxicity observed during extended dosing of the combination regimens; HCV RNA levels in patients ([2]; patients, single agent or combined with interferon and ribavirin): reduce HCV RNA levels in patients
CNC(=O)c1c(-c2ccc(F)cc2)oc2nc(CCC(F)(F)F)c(-c3ccc(F)c(C(=O)NC4(C#N)CCC4)c3)cc12 [Compound K1002]	< 0.1	–
CNC(=O)c1c(-c2ccc(F)cc2)oc2nc(NCC(F)(F)F)c(-c3ccc(F)c(C(=O)NC(C)C#N)c3)cc12 (stereo not drawn) [Compound 22001]	< 0.1	EC50 [3, 5]: 0.0055 µM
[2H]C([2H])([2H])Oc1ncc(-c2cc3c(C(=O)NC)c(-c4ccc(F)cc4)oc3nc2CCC(F)(F)F)cc1C(=O)NC(C)(C#N)C1CC1 (stereo not drawn) [Compound 18001]	< 0.1	EC50 [3, 5]: 0.0037 µM
CNC(=O)c1c(-c2ccc(F)cc2)oc2nc(CCC(F)(F)F)c(-c3cnc(OC)c(C(=O)NC(C)(C)C#N)c3)cc12 [Compound K7001]	< 0.1	–
CNC(=O)c1c(-c2ccc(F)cc2)oc2nc(NCC(F)(F)F)c(-c3ccc(F)c(C(=O)NC(C)(C#N)C4CC4)c3)cc12 (stereo not drawn) [Compound 22005]	–	EC50 ([3]; read-out: EC50 1b (class)): < 0.1 µM
CNC(=O)c1c(-c2ccc(F)cc2)oc2nc(NCC(F)(F)F)c(-c3ccc(F)c(C(=O)NC(C)C#N)c3)cc12 (stereo not drawn) [Compound 22003]	–	EC50 ([3]; read-out: EC50 1b (class)): < 0.1 µM
CNC(=O)c1c(-c2ccc(F)cc2)oc2nc(NCC(F)(F)F)c(-c3ccc(OC)c(C(=O)NC4(C#N)CC4)c3)cc12 [Compound K5002]	< 0.1	–
CNC(=O)c1c(-c2ccc(F)cc2)oc2nc(CCC(F)(F)F)c(-c3cccc(C(=O)NC(C)(C#N)CF)c3)cc12 (stereo not drawn) [Compound 11012]	< 0.1	–
CNC(=O)c1c(-c2ccc(F)cc2)oc2nc(NCC(F)(F)F)c(-c3cc(F)cc(C(=O)NC(C)(C#N)C4CC4)c3)cc12 (stereo not drawn) [Compound 23001]	< 0.1	–
CNC(=O)c1c(-c2ccc(F)cc2)oc2nc(CCC(F)(F)F)c(-c3cnc(OC)c(C(=O)NC(C)(C#N)C(C)C)c3)cc12 (stereo not drawn) [Compound K7005]	< 0.1	EC50 [3, 5]: 0.0028 µM
CNC(=O)c1c(-c2ccc(F)cc2)oc2nc(NCC(F)(F)F)c(-c3cc(F)cc(C(=O)NC(C)(C)C#N)c3)cc12 [Compound 23002]	< 0.1	EC50 [3, 5]: 0.0072 µM
CNC(=O)c1c(-c2ccc(F)cc2)oc2nc(CCC(F)(F)F)c(-c3cc(C(=O)NC(C)(C)C#N)ccc3F)cc12 [Compound 15002]	< 0.1	EC50 [3, 5]: 0.0042 µM
CNC(=O)c1c(-c2ccc(F)cc2)oc2nc(NCC(F)(F)F)c(-c3cccc(C(=O)NC4(C#N)CCCC4)c3)cc12 [Compound K4001]	< 0.1	–
CNC(=O)c1c(-c2ccc(F)cc2)oc2nc(NCC(F)(F)F)c(-c3ccc(OC)c(C(=O)NC4(C#N)CCC4)c3)cc12 [Compound K5001]	< 0.1	–
CNC(=O)c1c(-c2ccc(F)cc2)oc2nc(CCC(F)(F)F)c(-c3ccc(OC)c(C(=O)NC(C)(C)C#N)c3)cc12 [Compound 12001]	< 0.1	EC50 [3, 5]: 0.0025 µM
CNC(=O)c1c(-c2ccc(F)cc2)oc2nc(NCC(F)(F)F)c(-c3ccc(F)c(C(=O)NC4(C#N)CCCC4)c3)cc12 [Compound K2004]	< 0.1	–
CNC(=O)c1c(-c2ccc(F)cc2)oc2nc(NCC(F)(F)F)c(-c3ccc(F)c(C(=O)NC4(C#N)CCC4)c3)cc12 [Compound K2003]	< 0.1	–
CNC(=O)c1c(-c2ccc(F)cc2)oc2nc(CCC(F)(F)F)c(-c3cnc(OC)c(C(=O)NC4(C#N)CC4)c3)cc12 [Compound K7003]	< 0.1	–
CNC(=O)c1c(-c2ccc(F)cc2)oc2nc(NCC(F)(F)C(F)(F)F)c(-c3ccc(OC)c(C(=O)NC(C)(C#N)C(C)C)c3)cc12 (stereo not drawn) [Compound 31001]	< 0.1	–
CNC(=O)c1c(-c2ccc(F)cc2)oc2nc(CCC(F)(F)F)c(-c3ccc(OC)c(C(=O)NC4(C#N)CCCC4)c3)cc12 [Compound 12003]	< 0.1	–
CNC(=O)c1c(-c2ccc(F)cc2)oc2nc(NCC(F)(F)F)c(-c3ccc(F)c(C(=O)NC(C)(C#N)C4CC4)c3)cc12 (stereo not drawn) [Compound 22006]	–	EC50 ([3]; read-out: EC50 1b (class)): < 0.1 µM
CNC(=O)c1c(-c2ccc(F)cc2)oc2nc(CCC(F)(F)F)c(-c3cc(F)cc(C(=O)NC(C)(C#N)C4CC4)c3)cc12 (stereo not drawn) [Compound 14002]	< 0.1	–
